{
  "source": "patent US11980209B2",
  "about": "“Consumables” (GIVAUDAN SA, priority 2007, dated 2024)",
  "type_in_all_cases": "in vivo, human",
  "key": {"[1]": {"test_system": "perceived sweet taste (sweet sensitive panelists)", "test": "Ranking test, isointensity of 200 ppm trilobatin in water (Example 1c)", "method": "The sensory evaluation was conducted using the method described in example 1b. The panels consisted of 7 sweet sensitive panelists. Panelists were presented with 0.5%, 1%, and 1.5% sucrose solutions in water and a fourth sample of 200 ppm trilobatin in water. Panelists were asked to rank the samples from low to high with respect to perceived sweet taste. 200 ppm trilobatin in water was determined to be isosweet to 1% sucrose.\nThe sweetness detection threshold for individuals within the average consumer group varies from below 0.4% to 0.7% sucrose or more. All examples were performed with sweet sensitive panelists able to detect at least 0.5% sucrose or less. Extrapolating from examples 1 a, b, and c, the concentration detectable by the average consumer will therefore be higher, and the average concentration near the sweetness detection threshold of the average consumer will be about 100 to 200 ppm."}, "[2]": {"test_system": "perceived sweetness (sweet sensitive panelists)", "test": "Sweetness enhancement by trilobatin in cereals (Example 11)", "details": "tested in whole milk, vs cereal with 1% added sucrose", "method": "Trilobatin was tested by 4 sweet sensitive panelists in cereal samples (cereals from Kix, General Mills; USA). The cereal is a comparatively low sugar product and contains 3 g sucrose per 30 g cereal. Panelists tested the samples in whole milk. To the cereal samples, sucrose was topically added by spraying the corresponding amount of a 10% sucrose solution in water to give 1%. The samples were baked at 250° C. for about 15 minutes in a convection oven to dry/remove the water. Similarly, trilobatin was applied to cereal samples as a 0.1% solution in 50/50 w/w ethanol/water to give various trilobatin concentrations (100 ppm, 200 ppm, 400 ppm)."}, "[3]": {"test_system": "perceived sweetness (sweet sensitive panelists)", "test": "Ranking test with R-index, sweetness of trilobatin (750 ppm) in yogurt (Example 13)", "details": "for R-index: critical value 37.4 to 62.6%", "method": "The sucrose concentration isointense to 750 ppm trilobatin in a plain yogurt base was determined as follows.\nSamples contained a plain yogurt base with 750 ppm trilobatin, or the same plain yogurt base with sucrose in various concentrations (0%, 0.5%, 1.0%, 1.5%, and 2.0% sucrose).\n30 ml of each yogurt sample was served cold, in random order, to 21 sweet sensitive panelists. In two replications over 1 session, panelists were asked to rank the samples from least sweet to most sweet. The data was subjected to an R-index analysis."}, "[4]": {"test_system": "perceived sweetness (panelists)", "test": "Sweetness detection threshold of trilobatin in milk (Example 10)", "method": "Trilobatin was tested by 6 panelists in whole milk.\nMilk samples were 62.5 ppm, 125 ppm, 250 ppm, 500 ppm trilobatin; 1% sucrose, and 2% sucrose."}, "[5]": {"test_system": "perceived sweet taste (sweet sensitive panelists)", "test": "Direct comparison of 100 ppm trilobatin in 7% sucrose with 7.5% sucrose solution (Example 2a)", "details": "all of 8 sweet sensitive panelists"}, "[6]": {"test_system": "perceived sweet taste (sweet sensitive panelists)", "test": "Ranking test with R-index, isointensity of 100 ppm trilobatin in 7% sucrose solution (Example 2a)", "details": "for R-index: critical values 35.39-64.61%", "method": "The sensory evaluation was conducted using a ranking method. Samples at ambient temperature were randomly presented in 15 ml blind aliquots (unidentifiable by panelists). Panels consisted of 15 sweet sensitive subjects and samples were presented in 2 replications over 1 session. After tasting each sample, the mouth was rinsed thoroughly with water at ambient temperature prior to tasting the next sample. Panelists were presented with 7%, 8%, 9%, 10% and 11% sucrose solutions in water and a sixth sample of 100 ppm trilobatin in 7% sucrose. Subjects were asked to rank the samples from low to high with respect to perceived sweet taste. R-indices were calculated for 100 ppm trilobatin in 7% sucrose versus either 7%, 8%, 9%, 10% or 11% sucrose."}, "[7]": {"test_system": "perceived sweet taste (sweet sensitive panelists)", "test": "Ranking test with R-index, isointensity of 100 ppm trilobatin in water (Example 1b)", "details": "for R-index: critical values 35.39-64.61%", "method": "The sensory evaluation was conducted using a ranking method. Samples at ambient temperature were randomly presented in 15 ml blind aliquots (unidentifiable by panelists). Panels consisted of 15 sweet sensitive subjects and samples were presented in 2 replications over 1 session. After tasting each sample, the mouth was rinsed thoroughly with water at ambient temperature prior to tasting the next sample. Panelists were presented with 0.5%, 1%, 1.5% and 2% sucrose solutions in water and a fifth sample of 100 ppm trilobatin in water. Subjects were asked to rank the samples from low to high with respect to perceived sweet taste. R-indices were calculated for 100 ppm trilobatin versus either 0.5%, 1%, 1.5% or 2% sucrose."}, "[8]": {"test_system": "perceived sweetness (sweet sensitive panelists)", "test": "Sweetness enhancement by trilobatin in yoghurt (Example 9)", "method": "Trilobatin was tested by 6 sweet sensitive panelists in plain nonfat yoghurt.\nSamples of 62.5 ppm, 125 ppm, and 500 ppm trilobatin in yoghurt sweetened with 5% sucrose were compared by panelists to a 5% sucrose sweetened yoghurt and a 7% sucrose sweetened yoghurt sample; the results are indicated in the table below."}, "[9]": {"details": "750 ppm TL in plain yogurt vs 0% sucrose yogurt"}, "[10]": {"details": "750 ppm TL in plain yogurt vs 0.5% sucrose yogurt"}, "[11]": {"details": "750 ppm TL in plain yogurt vs 1% sucrose yogurt"}, "[12]": {"details": "750 ppm TL in plain yogurt vs 1.5% sucrose yogurt"}, "[13]": {"details": "750 ppm TL in plain yogurt vs 2% sucrose yogurt"}, "[14]": {"details": "100 ppm trilobatin in 7% sucrose"}, "[15]": {"details": "62.5 ppm trilobatin in yoghurt sweetened with 5% sucrose"}, "[16]": {"details": "125 ppm trilobatin in yoghurt sweetened with 5% sucrose"}, "[17]": {"details": "500 ppm trilobatin in 5% sucrose yoghurt"}},
  "note": "Entries after “also recorded” stand apart in the source; their conditions may differ.",
  "data": [
    {"smiles": "O=C(CCc1ccc(O)cc1)c1c(O)cc(O[C@@H]2O[C@H](CO)[C@@H](O)[C@H](O)[C@H]2O)cc1O", "note": "[trilobatin, 1-[4-(beta-D-glucopyranosyloxy)-2,6-dihydroxyphenyl]-3-(4-hydroxyphenyl)-1-propanone]", "values": [
      {"measurement": "isointensity to sucrose", "setting": "[1]; 200 ppm trilobatin in water", "value": 1, "unit": "% sucrose"},
      {"measurement": "average concentration near the sweetness detection threshold of the average consumer", "setting": "[1]; extrapolating from examples 1a, b and c", "value": "100 to 200", "unit": "ppm"},
      {"measurement": "Sweetness trilobatin sample", "setting": "[2]; 100 ppm trilobatin on cereal", "value": "less sweet than 1% sucrose"},
      {"measurement": "Sweetness trilobatin sample", "setting": "[2]; 200 ppm trilobatin on cereal", "value": "sweeter than 1% sucrose"},
      {"measurement": "Sweetness trilobatin sample", "setting": "[2]; 400 ppm trilobatin on cereal", "value": "much sweeter than 1% sucrose,; also recorded: too sweet"},
      {"measurement": "sweetness TL sample", "setting": "[3]; [9]", "value": "sweeter"},
      {"measurement": "R-index", "setting": "[3]; [9]", "value": 82.6, "unit": "%"},
      {"measurement": "sweetness TL sample", "setting": "[3]; [10]", "value": "isosweet"},
      {"measurement": "R-index", "setting": "[3]; [10]", "value": 58.5, "unit": "%"},
      {"measurement": "sweetness TL sample", "setting": "[3]; [11]", "value": "less"},
      {"measurement": "R-index", "setting": "[3]; [11]", "value": 14.7, "unit": "%"},
      {"measurement": "sweetness TL sample", "setting": "[3]; [12]", "value": "less"},
      {"measurement": "R-index", "setting": "[3]; [12]", "value": 4.4, "unit": "%"},
      {"measurement": "sweetness TL sample", "setting": "[3]; [13]", "value": "less"},
      {"measurement": "R-index", "setting": "[3]; [13]", "value": 3.3, "unit": "%"},
      {"measurement": "isointensity to sucrose", "setting": "[3]; 750 ppm trilobatin in plain yogurt", "value": 0.5, "unit": "% sucrose"},
      {"measurement": "Trilobatin sample sweetness compared to sucrose", "setting": "[4]; 62.5 ppm in whole milk, 6/6 panelists", "value": "below 1% sucrose (6/6)"},
      {"measurement": "Trilobatin sample sweetness compared to sucrose", "setting": "[4]; 125 ppm in whole milk, 6/6 panelists", "value": "below 1% sucrose (6/6)"},
      {"measurement": "Trilobatin sample sweetness compared to sucrose", "setting": "[4]; 250 ppm in whole milk, 6/6 panelists", "value": "below 1% sucrose (6/6)"},
      {"measurement": "Trilobatin sample sweetness compared to sucrose", "setting": "[4]; 500 ppm in whole milk, 3/6 panelists (below)", "value": "below 1% sucrose (3/6)"},
      {"measurement": "taste in direct comparison with 7.5% sucrose solution", "setting": "[5]", "value": "significantly sweeter"},
      {"measurement": "added sucrose sweetness intensity", "setting": "[6]; [14]", "value": 1, "unit": "° Brix"},
      {"measurement": "expected isointensity to sucrose assuming a merely additive effect", "setting": "[6]; [14]", "value": 7.5, "unit": "% sucrose"},
      {"measurement": "isointensity to sucrose", "setting": "[6]; [14]", "value": 8, "unit": "% sucrose"},
      {"measurement": "R-index", "setting": "[6]; 100 ppm trilobatin in 7% sucrose vs 7% sucrose", "value": 79, "unit": "%"},
      {"measurement": "R-index", "setting": "[6]; 100 ppm trilobatin in 7% sucrose vs 8% sucrose", "value": 38, "unit": "%"},
      {"measurement": "R-index", "setting": "[6]; 100 ppm trilobatin in 7% sucrose vs 9% sucrose", "value": 12, "unit": "%"},
      {"measurement": "R-index", "setting": "[6]; 100 ppm trilobatin in 7% sucrose vs 10% sucrose", "value": 1, "unit": "%"},
      {"measurement": "R-index", "setting": "[6]; 100 ppm trilobatin in 7% sucrose vs 11% sucrose", "value": 0, "unit": "%"},
      {"measurement": "sample sweetness (7% sucrose + 100 ppm trilobatin)", "setting": "[6]; vs 7% sucrose solution", "value": "Sweeter"},
      {"measurement": "sample sweetness (7% sucrose + 100 ppm trilobatin)", "setting": "[6]; vs 8% sucrose solution", "value": "Isosweet"},
      {"measurement": "sample sweetness (7% sucrose + 100 ppm trilobatin)", "setting": "[6]; vs 9% sucrose solution", "value": "Less sweet"},
      {"measurement": "sample sweetness (7% sucrose + 100 ppm trilobatin)", "setting": "[6]; vs 10% sucrose solution", "value": "Less sweet"},
      {"measurement": "sample sweetness (7% sucrose + 100 ppm trilobatin)", "setting": "[6]; vs 11% sucrose solution", "value": "Less sweet"},
      {"measurement": "sample sweetness (trilobatin, 100 ppm)", "setting": "[7]; 100 ppm in water vs 0.5% sucrose solution", "value": "Isosweet"},
      {"measurement": "sample sweetness (trilobatin, 100 ppm)", "setting": "[7]; 100 ppm in water vs 1.0% sucrose solution", "value": "Less sweet"},
      {"measurement": "sample sweetness (trilobatin, 100 ppm)", "setting": "[7]; 100 ppm in water vs 1.5% sucrose solution", "value": "Less sweet"},
      {"measurement": "sample sweetness (trilobatin, 100 ppm)", "setting": "[7]; 100 ppm in water vs 2.0% sucrose solution", "value": "Less sweet"},
      {"measurement": "isointensity to sucrose", "setting": "[7]; 100 ppm trilobatin in water", "value": 0.5, "unit": "% sucrose"},
      {"measurement": "R-index", "setting": "[7]; 100 ppm trilobatin in water vs 0.5% sucrose", "value": 44, "unit": "%"},
      {"measurement": "R-index", "setting": "[7]; 100 ppm trilobatin in water vs 1.0% sucrose", "value": 13, "unit": "%"},
      {"measurement": "R-index", "setting": "[7]; 100 ppm trilobatin in water vs 1.5% sucrose", "value": 0, "unit": "%"},
      {"measurement": "R-index", "setting": "[7]; 100 ppm trilobatin in water vs 2.0% sucrose", "value": 0, "unit": "%"},
      {"measurement": "sweetness trilobatin compared to 5% sucrose sample", "setting": "[8]; [15]", "value": "+ sweeter"},
      {"measurement": "sweetness trilobatin compared to 7% sucrose sample", "setting": "[8]; [15]", "value": "less sweet"},
      {"measurement": "sweetness trilobatin compared to 5% sucrose sample", "setting": "[8]; [16]", "value": "++ sweeter"},
      {"measurement": "sweetness trilobatin compared to 7% sucrose sample", "setting": "[8]; [16]", "value": "less sweet"},
      {"measurement": "sucrose level that the 5% sucrose sample tastes like", "setting": "[8]; [17]", "value": 7, "unit": "%"},
      {"measurement": "sweetness enhancement effect equivalent to added sucrose", "setting": "[8]; [17]", "value": 1, "unit": "% sucrose"}
    ]}
  ]
}
